# Measurements: patent US20250353873A1, “COMPOUNDS AND METHODS FOR MODULATING APOE EXPRESSION” (Ionis Pharmaceuticals, Inc., priority 2024, published 2025)
# pIC50: −log10 of the molar value. Values joined by “and” are separate entries in the source; they are usually repeats but may differ in a detail not shown here. Equal entries are not always repeated. e = 2'-O-(2-methoxyethyl) (MOE); k = constrained ethyl (cEt); d = 2'-deoxy (DNA)
# Tests used:
# BJAB cells [1] = conditions: known behaviour in the assay; cited from earlier work
# human APOE RNA [2] = assay: Dose-dependent inhibition of human APOE RNA in HepG2 cells, electroporation, 50,000 cells per well, RT-PCR normalized to GAPDH (Example 4, Tables 8-10); format: cell-based; conditions: HepG2, electroporation, 16-hour treatment
# How it was run: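 HepG2 cells, 50,000 per well, electroporated with modified oligonucleotide at various concentrations. APOE RNA quantified by RT-PCR with human primer probe set RTS3073, normalized to GAPDH. Values are percent APOE RNA relative to untreated control cells.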
# human APOE RNA [3] = assay: Activity in APOE 1549 knock-in mice, single ICV bolus, 2 weeks (Example 7); format: in vivo; conditions: single ICV bolus of 300 μg, two weeks post treatment, Table 16
# How it was run: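 Human APOE knock-in mice (model 41549), 2 per group, given a single 300 µg ICV bolus of oligonucleotide, with PBS as control. After 2 weeks, APOE RNA in cortex and spinal cord measured by RT-qPCR, normalized to mouse Ppia, and expressed as % of PBS control.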
# human APOE RNA [4] = assay: Activity in APOE C57BL/6NTac-Apoeem7250 knock-in mice, single ICV bolus, 8 weeks (Example 11); format: in vivo
# How it was run: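 Human APOE knock-in C57BL/6NTac mice given one ICV bolus of 300 μg oligonucleotide; PBS-dosed group as control. At 8 weeks, cortex and spinal cord RNA measured by qRT-PCR (human probe RTS3073), normalized to mouse Ppia, expressed as % of PBS control.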
# human APOE RNA [5] = assay: Activity in APOE C57BL/6NTac-Apoeem7250 knock-in mice, single ICV bolus, 20 weeks (Example 13); format: in vivo; conditions: single ICV bolus 300 μg, 20 weeks post treatment, normalized to mouse Ppia
# How it was run: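 Knock-in mice (n=4) given a single ICV bolus of 300 μg oligonucleotide, PBS as control. After 20 weeks, human APOE RNA in cortex and spinal cord measured by RT-qPCR, normalized to mouse Ppia, expressed as % of PBS-treated animals.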
# BJAB cells [6] = test system: BJAB cells
# Method: Human APOE modified oligonucleotides were tested for potential immunostimulatory properties in an in vitro human BJAB activation assay.
# Human Burkitt lymphoma B cells, BJAB cells (DSMZ, Cat #ACC 757) were cultured in RPMI1640 medium containing 20% fetal bovine serum at 37° C. and 5% CO2. Cells were maintained at a density of 0.5-0.7×10^6 cells per milliliter. Cells were transferred to 50 mL conical Falcon tubes and centrifuged at 330 RCF for 5 minutes before being resuspended at a concentration of 7.5×10^4 cells per milliliter in RPMI culture medium containing penicillin and streptomycin. 50 μL of the cell suspension was added to a v-bottom tissue culture treated 96-well microplate. 11 μl of 10× concentrated modified oligonucleotides was then added to the plate for a final concentration of 1.6 μM and incubated for 24 hours at 37° C. and 5% CO2.
# After a treatment period of 24 hours, total RNA was isolated from the cells and CCL22 RNA levels were measured by quantitative real-time RT-PCR. CCL22 RNA levels were measured by human primer-probe set RTS49260 (forward sequence [sequence], designated herein as SEQ ID NO: 19; reverse sequence [sequence], designated herein as SEQ ID NO: 20; probe sequence [sequence], designated herein as SEQ ID NO: 21). CCL22 RNA levels were normalized to total RNA content, as measured by GAPDH. Human GAPDH was measured using the human primer-probe set RTS104 (forward sequence [sequence], designated herein as SEQ ID NO: 10; reverse sequence [sequence], designated herein as SEQ ID NO: 11; probe sequence [sequence], designated herein as SEQ ID NO: 12). Levels of CCL22 RNA is presented log fold increase of CCL22, relative to untreated control cells (UTC). The assignment of the immunostimulatory properties of the test compounds is based on the immunostimulatory properties of the internal control compounds in each assay.
substance,measurement,setting,value
"Compound No. 735746: 3-10-3 cEt gapmer, TTCAAGGTGAACTGTT, internal standard (sugars from the 5' end k3 d10 k3, backbone and methylation of C not given here)",responder class for CCL22 release in the BJAB assay (internal standard),BJAB cells [1],moderate responder (mildly inflammatory)
"Compound No. 1517891: comparator of WO 2022/066956; ACTTGGTGAATCTTTATTAA, sugar eeeeeddddddddddeeeee, linkages sooosssssssssssooss (MOE gapmer, mixed PS/PO linkages, chemistry not fully specified) [reference compound]",APOE RNA (% UTC),human APOE RNA [2]; 5 nM,82 % UTC
same,APOE RNA (% UTC),human APOE RNA [2]; 13 nM,75 % UTC
same,APOE RNA (% UTC),human APOE RNA [2]; 33 nM,81 % UTC
same,APOE RNA (% UTC),human APOE RNA [2]; 82 nM,83 % UTC
same,APOE RNA (% UTC),human APOE RNA [2]; 205 nM,65 % UTC
same,APOE RNA (% UTC),human APOE RNA [2]; 512 nM,48 % UTC
same,APOE RNA (% UTC),"human APOE RNA [2]; 1,280 nM",36 % UTC
same,APOE RNA (% UTC),"human APOE RNA [2]; 3,200 nM",36 % UTC
same,APOE RNA (% UTC),"human APOE RNA [2]; 8,000 nM",17 % UTC
same,pIC50,human APOE RNA [2],6.26
same,APOE RNA (% control) Cortex,human APOE RNA [3]; cortex,49 % control
same,APOE RNA (% control) Spinal Cord,human APOE RNA [3]; spinal cord,65 % control
same,reduction of human APOE RNA in the cortex,"human APOE RNA [4]; APOE knock-in mouse model, 8 weeks post administration, assay of Example 11",44%
same,APOE RNA (% control) Cortex,"human APOE RNA [4]; cortex, single ICV bolus 300 μg, 8 weeks post treatment, normalized to mouse Ppia",56 % control
same,APOE RNA (% control) Spinal Cord,"human APOE RNA [4]; spinal cord, single ICV bolus 300 μg, 8 weeks post treatment, normalized to mouse Ppia",29 % control
same,APOE RNA (% control) Cortex,human APOE RNA [5]; cortex,93 % control and 97 % control
same,APOE RNA (% control) Spinal Cord,human APOE RNA [5]; spinal cord,92 % control and 71 % control
same,inflammatory response in human BJAB cells,BJAB cells [6],mildly inflammatory
"Compound No. 353512: 3-14-3 MOE gapmer, TCCCATTTCAGGAGACCTGG, internal standard (sugars from the 5' end e3 d14 e3, backbone and methylation of C not given here)",responder class for CCL22 release in the BJAB assay (internal standard),BJAB cells [1],high responder (inflammatory)
"Compound No. 104838: 5-10-5 MOE gapmer, GCTGATTAGAGAGAGGTCCC, internal standard (negative control) (sugars from the 5' end e5 d10 e5, backbone and methylation of C not given here)",responder class for CCL22 release in the BJAB assay (internal standard),BJAB cells [1],non-responder (non-inflammatory)
"Compound No. 785674: kk-9-eeekk cEt gapmer with MOE modifications, TATTTCTGCTCCAGGT, internal standard (sugars from the 5' end k2 d9 e3 k2, backbone and methylation of C not given here)",responder class for CCL22 release in the BJAB assay (internal standard),BJAB cells [1],high responder (inflammatory)
